Data set [1] can be described thus: Visual appearance / dissolution of vitamin E-containing components in demineralized water, on preparation and during storage. Format: physicochemical. The note with it: about 150 ppm in demineralized water; for Appearance / dissolution on preparation: after homogenizing or stirring; for Appearance during / after storage: six weeks at ambient temperature. The protocol: (§1) Sample 1: Vitamin E oil (0.15 g) was added to 1000 g of demineralized water. The mixture was homogenized for approximately 60 minutes using a Gifford-Wood homogenizer, Model 1 L form Greerco Corporation. The sample was very cloudy. The turbidity of the sample was measured using a Hach turbidimeter Model Ratio/XR. The turbidity of the demineralized water was also measured prior to addition of the vitamin E. The sample was stored at ambient temperature for six weeks. […] The sample was shaken well and the turbidity measured.
(§2) Sample 2: Vitamin E acetate oil (0.25 g) from Sigma-Aldrich was added to 1681 g of demineralized water. […] The turbidity of the dispersion was measured and then again after storage for six weeks at ambient temperature.
(§3) Sample 3: Vitamin E succinate powder (0.27 g) from Sigma-Aldrich was added to 1792 g of demineralized water. The mixture was homogenized for approximately 60 minutes. […] The turbidity of the dispersion was measured and then again after storage for six weeks at ambient temperature.
(§4) This solution was stirred at ambient temperature using a magnetic stirrer for several minutes. […] The turbidity of the solution was measured and then measured again after storage at ambient temperature for six weeks.
(§5) Sample 6: To 1790 g of demineralized water was added 0.27 g of a mixture consisting of d,l-α-tocopheryl acetate, modified food starch, and silica. This product is commercially available from Roche Vitamins, Inc., under the name “Dry Vitamin E 15% CC”. The aqueous mixture was agitated for about thirty minutes using a magnetic stirrer. […] The turbidity of the solution was measured and then re-measured after storage for six weeks at ambient temperature.
(§6) Sample 7: To 1802 g of demineralized water was added 0.27 g of a mixture consisting of d-α-tocopheryl acetate, Polysorbate 60, and ethyl alcohol. This product is commercially available from ADM under the name “E 230 Clear®”. The mixture was agitated for about ten minutes using a magnetic stirrer. […] The turbidity of the solution was measured and then re-measured after storage for six weeks at ambient temperature.

A short description of data set [2]: Turbidity of aqueous dispersions and solutions of vitamin E-containing components in demineralized water (Hach turbidimeter Model Ratio/XR). It counts as physicochemical. The note with it: 150 +/- 5 ppm in demineralized water; for Turbidity (Initially doped water): initial; for Turbidity (6 wks after doping): six weeks at ambient temperature. The protocol:
Preparation of aqueous dispersions and solutions of vitamin E-containing components.
as §1, §2, §3, §4, §5, §6

Turning to `Cc1c(C)c2c(c(C)c1O)CC[C@@](C)(CCC[C@H](C)CCC[C@H](C)CCCC(C)C)O2` [Sample 1, d-α-Tocopherol], in data set [1], the “Appearance / dissolution on preparation” value was “very cloudy” and the “Appearance during / after storage” value was “an immiscible layer of oil formed on top of the water”. Besides, in data set [2], the “Turbidity (Initially doped water)” value amounted to 55 NTU and the “Turbidity (6 wks after doping)” value amounted to 68 NTU.

Regarding `CC(=O)Oc1c(C)c(C)c2c(c1C)CC[C@@](C)(CCC[C@H](C)CCC[C@H](C)CCCC(C)C)O2` [Sample 2, d-α-Tocopherol acetate], in data set [1], the “Appearance / dissolution on preparation” value is recorded as “some immiscible oil droplets remained on the surface of the water” and the “Appearance during / after storage” value was “Immiscible oil droplets were still on the surface of the water”. For the same molecule, in data set [2], the “Turbidity (Initially doped water)” value is reported as 52 NTU and the “Turbidity (6 wks after doping)” value stood at 61 NTU.

`Cc1c(C)c2c(c(C)c1OC(=O)CCC(=O)O)CCC(C)(CCCC(C)CCCC(C)CCCC(C)C)O2` (stereo not drawn) [Sample 3, d,l-α-Tocopherol succinate]: in data set [1], the “Appearance / dissolution on preparation” value is recorded as “A small amount of powder continued to float on the surface of the water” and the “Appearance during / after storage” value was “A small amount of powder continued to reside on the surface of the water”. In data set [2], the “Turbidity (Initially doped water)” value turned out to be 8 NTU and the “Turbidity (6 wks after doping)” value was found to be 22 NTU.
